Data as given in patent US6525001B1, “Substituted pyrimidine and pyridine herbicides” (Mid-American Commercialization Corporation, priority 1997, dated 2003).

What was measured:
Experiment in all cases: Test E pre-/postemergence/post directed
Format in all cases: in vivo
[1] = tested on: purple nutsedge (Cyperus rotundus); parameters: key: 0 is no injury; 100 is complete control
From the text: (§1) Seeds, tubers, or plant parts of alexandergrass (Brachiaria plantaginea), annual bluegrass (Poa annua), arrowleaf sida (Sida rhombifolia), barnyardgrass (Echinochloa crus-galli), bermudagrass (Cynodon dactylon), citrus (Citrus sinensis), common chickweed (Stellaria media), common purslane (Portulaca oleracea), common ragweed (Ambrosia elatior), common groundsel (Senecio vulgaris), dallisgrass (Paspalum dilatatum), goosegrass (Eleusine indica), green foxtail (Setaria viridis), guineagrass (Panicum maximum), itchgrass (Rottboellia exaltata), johnson grass (Sorghum halepense), kochia (Kochia scoparia), large crabgrass (Digitaria sanguinalis), leafy spurge (Euphorbia esula), pitted morningglory (Ipomoea lacunosa), purple nutsedge (Cyperus rotundus), quackgrass (Agropyron repens), Russian thistle (Salsola kali), sandbur (Cenchrus echinatus), sourgrass (Trichachne insularis), Spanishneedles (Bidens bipinnata), sugarcane (Saccharum officinarum), surinam grass (Brachiaria decumbens) and tall mallow (Malva sylvestris) were planted into greenhouse pots of flats containing greenhouse planting medium. Plant species were grown grown in separate pots or individual compartments. Preemergence applications were made within one day of planting the seed or plant part. Postemergence applications were applied when the plants were in the two to four leaf stage (three to twenty cm).
(§2) Test chemicals were formulated in a non-phytotoxic solvent mixture which included a surfactant and applied preemergence to the soil surface, postemergence to the plants or as a post directed spray to plants and soil at the base of the target species. Untreated control plants and treated plants were placed in the greenhouse and visually evaluated for injury 13 to 21 days after herbicide application. Plant response ratings, summarized in Table E, are based on a 0 to 100 scale where 0 is no injury and 100 is complete control. A dash (−) response means no test result.

[2] = tested on: alexandergrass (Brachiaria plantaginea)
From the text: as §1, §2

[3] = tested on: Spanishneedles (Bidens bipinnata)
From the text: as §1, §2

[4] = tested on: bermudagrass (Cynodon dactylon); settings: PREEMERGENCE
From the text: as §1, §2

[5] = tested on: pitted morningglory (Ipomoea lacunosa)
From the text: as §1, §2

[6] = tested on: itchgrass (Rottboellia exaltata)
From the text: as §1, §2

[7] = tested on: large crabgrass (Digitaria sanguinalis)
From the text: as §1, §2

[8] = tested on: johnson grass (Sorghum halepense)
From the text: as §1, §2

[9] = tested on: common groundsel (Senecio vulgaris)
From the text: as §1, §2

[10] = tested on: sandbur (Cenchrus echinatus); settings: PREEMERGENCE
From the text: as §1, §2

[11] = tested on: common ragweed (Ambrosia elatior)
From the text: as §1, §2

[12] = tested on: surinam grass (Brachiaria decumbens); settings: PREEMERGENCE
From the text: as §1, §2

Cc1cnc(-n2cnc(C(F)(F)F)c2)nc1Cc1cccc(C(F)(F)F)c1 [Compound 44]
Plant response rating, Purple nutsedge ([1]; POSTEMERGENCE, Rate 125 g/ha): 0 | Plant response rating, Purple nutsedge ([1]; POSTEMERGENCE, Rate 250 g/ha): 0 | Plant response rating, Purple nutsedge ([1]; PREEMERGENCE, Rate 32 g/ha): 0 | Plant response rating, Purple nutsedge ([1]; PREEMERGENCE, Rate 64 g/ha): 0 | Plant response rating, Purple nutsedge ([1]; PREEMERGENCE, Rate 125 g/ha): 0 | Plant response rating, Purple nutsedge ([1]; PREEMERGENCE, Rate 250 g/ha): 0 | Plant response rating, Alexandergrass ([2]; POSTEMERGENCE, Rate 125 g/ha): 10 | Plant response rating, Alexandergrass ([2]; POSTEMERGENCE, Rate 250 g/ha): 10 | Plant response rating, Alexandergrass ([2]; PREEMERGENCE, Rate 64 g/ha): 40 | Plant response rating, Alexandergrass ([2]; PREEMERGENCE, Rate 125 g/ha): 40 | Plant response rating, Alexandergrass ([2]; PREEMERGENCE, Rate 250 g/ha): 50 | Plant response rating, Spanishneedles ([3]; POSTEMERGENCE, Rate 125 g/ha): 10 | Plant response rating, Spanishneedles ([3]; POSTEMERGENCE, Rate 250 g/ha): 10 | Plant response rating, Spanishneedles ([3]; PREEMERGENCE, Rate 32 g/ha): 20 | Plant response rating, Spanishneedles ([3]; PREEMERGENCE, Rate 64 g/ha): 60 | Plant response rating, Spanishneedles ([3]; PREEMERGENCE, Rate 125 g/ha): 70 | Plant response rating, Spanishneedles ([3]; PREEMERGENCE, Rate 250 g/ha): 98 | Plant response rating, Bermudagrass ([4]; Rate 32 g/ha): 30 | Plant response rating, Bermudagrass ([4]; Rate 64 g/ha): 80 | Plant response rating, Bermudagrass ([4]; Rate 125 g/ha): 98 | Plant response rating, P. morninglory ([5]; POSTEMERGENCE, Rate 125 g/ha): 30 | Plant response rating, P. morninglory ([5]; POSTEMERGENCE, Rate 250 g/ha): 40 | Plant response rating, P. morninglory ([5]; PREEMERGENCE, Rate 32 g/ha): 20 | Plant response rating, P. morninglory ([5]; PREEMERGENCE, Rate 64 g/ha): 30 | Plant response rating, P. morninglory ([5]; PREEMERGENCE, Rate 125 g/ha): 50 | Plant response rating, P. morninglory ([5]; PREEMERGENCE, Rate 250 g/ha): 50 | Plant response rating, Itchgrass ([6]; POSTEMERGENCE, Rate 125 g/ha): 5 | Plant response rating, Itchgrass ([6]; POSTEMERGENCE, Rate 250 g/ha): 10 | Plant response rating, Itchgrass ([6]; PREEMERGENCE, Rate 125 g/ha): 30 | Plant response rating, Itchgrass ([6]; PREEMERGENCE, Rate 250 g/ha): 40 | Plant response rating, Large crabgrass ([7]; POSTEMERGENCE, Rate 125 g/ha): 10 | Plant response rating, Large crabgrass ([7]; POSTEMERGENCE, Rate 250 g/ha): 10 | Plant response rating, Large crabgrass ([7]; PREEMERGENCE, Rate 64 g/ha): 60 | Plant response rating, Large crabgrass ([7]; PREEMERGENCE, Rate 125 g/ha): 70 | Plant response rating, Large crabgrass ([7]; PREEMERGENCE, Rate 250 g/ha): 60 | Plant response rating, Johnsongrass ([8]; POSTEMERGENCE, Rate 125 g/ha): 5 | Plant response rating, Johnsongrass ([8]; POSTEMERGENCE, Rate 250 g/ha): 10 | Plant response rating, Johnsongrass ([8]; PREEMERGENCE, Rate 32 g/ha): 30 | Plant response rating, Johnsongrass ([8]; PREEMERGENCE, Rate 125 g/ha): 60 | Plant response rating, Johnsongrass ([8]; PREEMERGENCE, Rate 250 g/ha): 75 | Plant response rating, Com. groundsel ([9]; POSTEMERGENCE, Rate 125 g/ha): 10 | Plant response rating, Com. groundsel ([9]; POSTEMERGENCE, Rate 250 g/ha): 10 | Plant response rating, Com. groundsel ([9]; PREEMERGENCE, Rate 32 g/ha): 98 | Plant response rating, Sandbur ([10]; Rate 64 g/ha): 60 | Plant response rating, Sandbur ([10]; Rate 125 g/ha): 70 | Plant response rating, Sandbur ([10]; Rate 250 g/ha): 80 | Plant response rating, Com. ragweed ([11]; POSTEMERGENCE, Rate 125 g/ha): 10 | Plant response rating, Com. ragweed ([11]; POSTEMERGENCE, Rate 250 g/ha): 20 | Plant response rating, Com. ragweed ([11]; PREEMERGENCE, Rate 32 g/ha): 40 | Plant response rating, Com. ragweed ([11]; PREEMERGENCE, Rate 64 g/ha): 85 | Plant response rating, Com. ragweed ([11]; PREEMERGENCE, Rate 125 g/ha): 98

Cc1cnc(-n2cnc(C(F)(F)F)n2)nc1C(=O)c1cccc(C(F)(F)F)c1 [Compound 67]
Plant response rating, Purple nutsedge ([1]; PREEMERGENCE, Rate 32 g/ha): 0 | Plant response rating, Purple nutsedge ([1]; PREEMERGENCE, Rate 64 g/ha): 5 | Plant response rating, Purple nutsedge ([1]; PREEMERGENCE, Rate 125 g/ha): 5 | Plant response rating, Purple nutsedge ([1]; PREEMERGENCE, Rate 250 g/ha): 10 | Plant response rating, Alexandergrass ([2]; PREEMERGENCE, Rate 32 g/ha): 25 | Plant response rating, Alexandergrass ([2]; PREEMERGENCE, Rate 64 g/ha): 40 | Plant response rating, Alexandergrass ([2]; PREEMERGENCE, Rate 125 g/ha): 70 | Plant response rating, Alexandergrass ([2]; PREEMERGENCE, Rate 250 g/ha): 95 | Plant response rating, Spanishneedles ([3]; PREEMERGENCE, Rate 125 g/ha): 50 | Plant response rating, Spanishneedles ([3]; PREEMERGENCE, Rate 250 g/ha): 50 | Plant response rating, Bermudagrass ([4]; Rate 32 g/ha): 70 | Plant response rating, Bermudagrass ([4]; Rate 64 g/ha): 90 | Plant response rating, Bermudagrass ([4]; Rate 125 g/ha): 90 | Plant response rating, P. morninglory ([5]; PREEMERGENCE, Rate 32 g/ha): 60 | Plant response rating, P. morninglory ([5]; PREEMERGENCE, Rate 64 g/ha): 75 | Plant response rating, P. morninglory ([5]; PREEMERGENCE, Rate 125 g/ha): 90 | Plant response rating, P. morninglory ([5]; PREEMERGENCE, Rate 250 g/ha): 90 | Plant response rating, Itchgrass ([6]; PREEMERGENCE, Rate 32 g/ha): 40 | Plant response rating, Itchgrass ([6]; PREEMERGENCE, Rate 64 g/ha): 40 | Plant response rating, Itchgrass ([6]; PREEMERGENCE, Rate 125 g/ha): 65 | Plant response rating, Itchgrass ([6]; PREEMERGENCE, Rate 250 g/ha): 80 | Plant response rating, Large crabgrass ([7]; PREEMERGENCE, Rate 32 g/ha): 90 | Plant response rating, Large crabgrass ([7]; PREEMERGENCE, Rate 64 g/ha): 95 | Plant response rating, Large crabgrass ([7]; PREEMERGENCE, Rate 125 g/ha): 98 | Plant response rating, Johnsongrass ([8]; PREEMERGENCE, Rate 32 g/ha): 35 | Plant response rating, Johnsongrass ([8]; PREEMERGENCE, Rate 64 g/ha): 35 | Plant response rating, Johnsongrass ([8]; PREEMERGENCE, Rate 125 g/ha): 50 | Plant response rating, Johnsongrass ([8]; PREEMERGENCE, Rate 250 g/ha): 80 | Plant response rating, Surinam grass ([12]; Rate 32 g/ha): 35 | Plant response rating, Surinam grass ([12]; Rate 64 g/ha): 75 | Plant response rating, Surinam grass ([12]; Rate 125 g/ha): 75 | Plant response rating, Com. groundsel ([9]; PREEMERGENCE, Rate 64 g/ha): 50 | Plant response rating, Com. groundsel ([9]; PREEMERGENCE, Rate 125 g/ha): 95 | Plant response rating, Sandbur ([10]; Rate 32 g/ha): 60 | Plant response rating, Sandbur ([10]; Rate 64 g/ha): 60 | Plant response rating, Sandbur ([10]; Rate 125 g/ha): 65 | Plant response rating, Sandbur ([10]; Rate 250 g/ha): 75 | Plant response rating, Com. ragweed ([11]; PREEMERGENCE, Rate 32 g/ha): 90 | Plant response rating, Com. ragweed ([11]; PREEMERGENCE, Rate 64 g/ha): 95
